Experimental data: PMC5963734 (Neuron, 2018)

Tested on: PSD-95 - α-actinin interaction
Settings: acute forebrain slices, 100 μM NMDA for 5 min; Figure 7

Which results are given for CN[C@H](CC(=O)O)C(=O)O [NMDA]?
co-IP of CaM with PSD-95 after NMDA: strongly increased; co-IP of α-actinin with PSD-95 after NMDA: nearly abolished
